Like-named read-outs stand apart in the source and are kept apart here.
Assays:
[1] = system: enriched B-cells from healthy volunteers; test: Inhibition of B-cell antibody production (IgG and IgM AlphaLISA); conditions: for IC50: Homo sapiens, B-cell, 168 h
Procedure: B-cells were enriched from leukocyte concentrate of TrimaAccel® LRS chamber recovered after a plateletpheresis procedure from healthy volunteers (Stanford Blood Center, Palo Alto, Calif.) using the Straight from LRSC CD19 Microbead Kit (Miltenyi Biotech). […] IC50 was calculated in GraphPad Prism with non-linear regression using “log (inhibitor) vs. response—Variable slope (four parameters)” analysis with no constraints.

[2] = system: CD20+ B-cells in human whole blood; test: B-cell activation: anti-IgM-induced CD69 expression on CD20+ B-cells in human whole blood (flow cytometry); assay type: cell-based; conditions: read-out: IC50 for inhibition of CD69 B-cell expression
Procedure: Compound (I) can inhibit B-cell activation, BCR dependent B-cell proliferation, and de novo antibody production. To determine the functional activity of Compound (I), the ability of the compound to inhibit B-cell activation as assessed by anti-IgM-induced CD69 expression in CD20+ B-cells in human whole blood was determined (FIG. 7). […]. As an additional measure of the effects of Compound (I) on B-cell function, the ability of Compound (I) to inhibit B-cell receptor (BCR)-induced human B-cell proliferation was determined. […]. A randomized multicenter trial comparing low-dose prednisolone versus observation for prevention of recurrences in adult immune thrombocytopenia. Clin Appl Thromb Hemost 24: 867-873.).

ADCC = test: Antibody-dependent cell-mediated cytotoxicity (ADCC) in combination with anti-CD20 antibodies; assay type: cell-based
[3] = system: anti-GBM glomerulonephritis; test: Mouse anti-GBM glomerulonephritis model; assay type: in vivo
Procedure: The mouse anti-GBM glomerulonephritis model involves antibody mediated autoimmunity, and the model is histologically and mechanistically similar to glomerulonephritis in humans. The model also includes kidney deposition of immune complexes (IC), targeting glomerular basement membrane. The efficacy of Compound (I) (also referred to as PRN1008) relative to the corticosteroid dexamethasone (Dex) was tested in a mouse anti-GBM glomerulonephritis model according to the design shown in FIG. 1. Briefly, to induce glomerulonephritis, mice were pre-sensitized with sheep IgG/FCA (Study Day −5). Five days later (Study Day 0), the mice received anti-GBM sheep IgG. Treatment with vehicle, Compound (I), or Dex with various dosage regimes (Compound (I): 10 mg/kg, 20 mg/kg, or 40 mg/kg QD or 20 mg/kg BID; Dex: 1 mg/kg QD; Vehicle: QD or BID) began at Study Day −1, one day prior to injection with anti-GBM sheep IgG. Treatment continued until Study Day 10, for […] treatment in total. Urine protein analysis was conducted on Study Days −6, −4, −1, 1, 3, 6, 8, and 10. Following Study Day 10, mice serum BUN levels were analyzed as a measure of kidney function, and kidney histology was performed.

[4] = 10, 20 or 40 mg/kg QD or 20 mg/kg BID, Study Day -1 to 10

How did the “T-dependent and T-independent antibody production (IgG and IgM)” value ([1]; CpG, TNP-LPS or anti-CD40+IL-21 stimulation, 7 days) turn out when `CC(C)(C=C(C#N)C(=O)N1CCC[C@@H](n2nc(-c3ccc(Oc4ccccc4)cc3F)c3c(N)ncnc32)C1)N1CCN(C2COC2)CC1` [Compound (I), 2-[(3R)-3-[4-amino-3-(2-fluoro-4-phenoxy-phenyl)pyrazolo[3,4-d]pyrimidin-1-yl]piperidine-1-carbonyl]-4-methyl-4-[4-(oxetan-3-yl)piperazin-1-yl]pent-2-enenitrile] was run?
Its value is “inhibited”.

And the IC50 ([1]; read-out: IgG antibody production IC50, CpG (TLR-9 agonist) stimulation, T-independent, 7 days)?
Its IC50 is 50 ± 90 nM.

What about the IC50 ([1]; read-out: IgG antibody production IC50, TNP-LPS stimulation, T-independent, 7 days) of the same compound?
Its IC50 is 300 ± 600 nM.

And the IC50 ([1]; read-out: IgG antibody production IC50, anti-CD40 + IL-21 stimulation (T-cell dependent), 7 days)?
The IC50 was 20 ± 20 nM.

And the IC50 ([1]; read-out: IgM antibody production IC50, CpG (TLR-9 agonist) stimulation, T-independent, 7 days)?
Its IC50 is 1 ± 1 nM.

And the IC50 ([1]; read-out: IgM antibody production IC50, TNP-LPS stimulation, T-independent, 7 days)?
Its IC50 is 200 ± 600 nM.

What about the IC50 ([1]; read-out: IgM antibody production IC50, anti-CD40 + IL-21 stimulation (T-cell dependent), 7 days) of the same compound?
Its IC50 is 800 ± 1000 nM.

And the IC50 [2]?
The IC50 was 126 ± 32 nM.

What about the “effect on ADCC” value (ADCC) of the same compound?
Its value is “did not block”.

And the “inhibition of kidney weight gain (surrogate for kidney inflammation)” value [3, 4]?
The value was “dose dependent inhibition”.

What about the “inhibition of severe proteinuria” value [3, 4] of the same compound?
The value was “dose dependent inhibition”.

And the “inhibition of serum blood urea nitrogen (BUN) levels” value ([3]; 10, 20 or 40 mg/kg QD or 20 mg/kg BID, Study Day -1 to 10, BUN after Day 10)?
Its value is “dose dependent inhibition”.

And the “kidney pathology (histology)” value ([3]; compared with Dex 1 mg/kg QD)?
Its value is “significantly reduced kidney pathology, superior to a steroid comparator (Dex)”.

What about the “proteinuria during the study” value ([3]; urine protein analysis up to Study Day 10) of the same compound?
The value was “reduced proteinuria”.
